1 compound from patent EP2522350A1, “Use of the active ingredient combination of a 1-diethylaminoethyl-3-chinoxalin-2-on derivative and an oxysterol for breaking resistance in the treatment of cancer and strengthening the immune system against cancer, bacterial and viral diseases, autoimmune diseases, increased stress and …” (Immunopharm AG, priority 2011, dated 2012) can be followed below.

A short description of the assay: ORAC value (Oxygen Radical Absorbing Capacity). The note with it: ratio to other antioxidants; no test described.

As for `CCN(CC)CCn1c(=O)c(Cc2ccc(OC)cc2)nc2ccccc21` [Caroverin, 1-(2-Diethylaminoethyl)-3-(p-methoxy-benzyl)-1,2-dihydrochinoxalin-2-on], the “ORAC-Wert, höher gegenüber allen anderen bekannten Antioxidantien wie Vitamin C, E oder Glutathion” value was not above 1000 fach.
